Data on two substances can be found in US20080280810A1, “PEPTIDES HAVING AFFINITY FOR BODY SURFACES” (priority 2006, published 2008).

A short description of experiment [1]: Co-application of multi-block peptide with semi-permanent dye (Arianor Ebony), color retention. Also noted: species or system human; key: ΔE of peptide sample minus peptide-free control; larger = better retention. The settings on record: difference in Delta E between peptide sample and peptide free control after 3 embrocation cycles (about 12 manual shampoos); pH 8.5-9.0; >2 benefit, >4 substantial benefit. As to the method:
(§1) A 0.5% aqueous solution of Arianor Ebony (Sensient Technologies Corp, Milwaukee, Wis.) containing 3% benzyl alcohol and 0.05% diazolidinyl urea (biocide) was prepared. Dye insolubles were removed by filtration and the pH of the dye solution was adjusted to 8.50-9.0, using ethanolamine.
(§2) Approximately 1 mL of the dye solution was added to selected wells of a 24-well plate (Thomson Instrument Co., Oceanside, Calif.; part # 931565). A multi-block peptide (see Table 12) was dissolved in a solution consisting of 3 wt % benzyl alcohol and 95 wt % water to yield a peptide concentration of 2 wt % or approximately 20 mg/mL. The pH was adjusted to 8.5-9.0 using ethanolamine. The peptide solution was then pipetted into test wells containing dye solution in the amount of 1 mL or 0.2 mL respectively. The total volume in each test well was then adjusted to 2 mL where necessary using 3% aqueous benzyl alcohol (pH adjusted to 8.5-9.0 with ethanolamine). Peptide free controls consisted of 1 mL of dye solution diluted to 2 mL with the pH adjusted aqueous benzyl alcohol solution.
(§3) Baseline […] readings were made on one inch long tresses (see below) using an X-RITE® SP78™ Sphere Spectrophotometer (X-Rite, Inc., Grandville, Mich.), by placing the hair tress into the photosensor and calculating L*, a* and b* parameters representing the photometer response. All measurements were the average of three individual determinations.
(§4) The tresses (potted on one end with resin) of natural white, 85% gray or regular bleached hair (International Hair Importers and Products, Bellerose, N.Y.) were immersed in the peptide/dye solution and the entire well plate was agitated on a VORTEX-GENIE® 2 Mixer (Scientific Industries, Bohemia, N.Y.) at a speed setting of 1 for 30 minutes. The tresses were removed from the wells, rinsed for 30 seconds under flowing deionized water and then air dried.
(§5) The following complement of beads was then added to each well containing a hair tress: (8 beads in all; 4 Novagen Coli Rollers Plating Beads—sterilized (EMD Biosciences, San Diego, Calif.; Catalog No. 71013), 2 BioSpec 6.35 mm glass beads (BioSpec Products, Bartlesville, Okla.; Catalog No. 11079635), and 2 BioSpec 3.2 mm Stainless Steel Bead (Catalog No. 11079132ss).
(§6) Then 2.5 mL of aqueous 50% Pantene Pro V® shampoo (Proctor & Gamble Co., Cincinnati, Ohio) was pipetted into each well. The plate was placed on a VWR® VX-2500 Multi-tube Vortexer (VWR, West Chester, Pa.) for 5 minutes to simulate shampooing with embrocation. The hair tresses were then rinsed under flowing deionized water and air dried. This cycle was repeated two more times except that the length of time was 10 minutes for both subsequent embrocation cycles. (This treatment was previously determined to simulate approximately 12 manual shampoo cycles.) At the conclusion of the third embrocation cycle L*, a* and b* values were measured and Delta E values (ΔE) were calculated using equation 1 below:
(§7) where L*=the lightness variable and a* and b* are the chromaticity coordinates of CIELAB colorspace as defined by the International Commission of Illumination (CIE) (Minolta, Precise Color Communication—Color Control From Feeling to Instrumentation, Minolta Camera Co., 1996).
(§8) The Delta E value (ΔE) indicates color retention relative to the non-dyed hair and larger Delta E values indicate better performance. Values listed in the table represent the difference in Delta E values between the peptide-containing sample and the peptide free control. This difference is indicative of color retention after shampoo or water rinse treatments and positive values indicate better performance relative to the peptide free controls (Table 12).

Assay in experiment [2]: as above
Also noted: species or system human. The settings on record: difference in Delta E between peptide sample and peptide free control after 3 embrocation cycles (about 12 manual shampoos); pH 8.5-9.0; >2 benefit, >4 substantial benefit. How it is done:
as §1, §2, §3, §4, §5, §6, §7, §8

A short description of experiment [3]: HPLC analysis of peptide uptake by hair. It is filed as binding, human. The settings on record: no dye; for % Uptake time = 0 min / % Uptake time = 30 min / % Uptake time = 60 min: 20 mM Tris pH 7.2, 0.15 M NaCl, room temperature, peptide 0.1 mg/mL (IB5A, A5) or 0.05 mg/mL (HC 71, HC 74); for uptake onto hair compared with the same peptide without the charged groups (in words): HC 71 vs IB5, HC 74 vs A5. As to the method:
The purpose of this Example was to compare the speed of uptake by measuring the amount of various peptides including peptides of the invention bound to hair at different time points using a high performance liquid chromatography (HPLC) method. The peptides, HC 71, HC 74, IB5 (the hair-binding peptide sequence in HC 71), and A5 (the hair-binding peptide sequence in HC 74), were dissolved in 10 mL of 20 mM Tris, pH 7.2 buffer containing 0.15 M NaCl to give the peptide concentrations shown in Table 11. Natural white hair, 0.54 g, (International Hair Importers & Products Inc., Bellerose, N.Y.) was pre-equilibrated with 10 mL of Tris buffer for 30 min with mixing at room temperature. Then, the buffer was drained from the hair and 10 mL of one of the peptide solutions was added. The hair was incubated with the peptide solution at room temperature without mixing and samples were taken at 0, 30 and 60 min for HPLC analysis. For peptide uptake measurements in the presence of Acid Red 33 dye, the peptide solution was mixed 1:1 with an aqueous solution of the dye (0.5 wt %). Natural white hair (0.65 g) pre-wet with deionized water, was added to the peptide solutions and the solutions were incubated at room temperature without mixing. Samples were taken at time 0, 30, and 60 min for analysis by HPLC. The samples were analyzed using HPLC to determine the concentration of the peptide remaining in solution, and by difference, the amount of peptide taken up by the hair. The HPLC analysis was done using an Agilent liquid chromatograph (Agilent Technologies Inc., Wilmington, Del.) with a 5 μm Zorbax Eclipse XDB-C18 column (Agilent Technologies Inc.). The sample was diluted with distilled water containing 0.1% trifluoroacetic acid (typically a 10-fold dilution), and 5 to 50 μL was injected using a 100 μL injection loop. A solvent gradient elution was used with two solvents: Solvent A, consisting of acetonitrile with 0.1% aqueous trifluoracetic acid, and Solvent B, consisting of water with 0.1% trifluoroacetic acid. The gradient was from 10% acetonitrile to 80% acetonitrile at a rate of 1%/min over a period of 70 min. The flow rate was 1.25 mL/min. Detection was done with a photodiode array detector at 218 nm, 230 nm, and 278 nm.

Regarding “P-TPPELLHGAPRS-KRKRK-D (PTPPELLHGAPRSKRKRKD; Peptide having affinity for hair) [HC 71]”, in experiment [1], the “ΔE Retention Ebony Dye Regular Bleached Hair” value stood at 1.9 and the “ΔE Retention Ebony dye with Natural White Hair” value came to 5.2. For the same substance, in experiment [2], the “ΔE Retention Ebony Dye with 85% Gray Hair” value is 2.9. For the same substance, in experiment [3], the “% Uptake time = 0 min” value is on record as 0%, the “% Uptake time = 30 min” value was determined as 69%, the “% Uptake time = 60 min” value is 75% and the “uptake onto hair compared with the same peptide without the charged groups (in words)” value is on record as “significantly faster uptake onto hair”.

For the substance “P-EQISGSLVAAPW-KRKRK-D (PEQISGSLVAAPWKRKRKD; Peptide having affinity for hair) [HC 74]”, in experiment [1], the “ΔE Retention Ebony Dye Regular Bleached Hair” value came out at 0.1 and the “ΔE Retention Ebony dye with Natural White Hair” value was determined as 8.5. In experiment [2], the “ΔE Retention Ebony Dye with 85% Gray Hair” value was determined as 7.5. In experiment [3], the “% Uptake time = 0 min” value worked out at 0%, the “% Uptake time = 30 min” value stood at 22%, the “% Uptake time = 60 min” value came out at 27% and the “uptake onto hair compared with the same peptide without the charged groups (in words)” value is given as “significantly faster uptake onto hair”.
